Experimental data as given in US20220267274A1, “TARGETING PTPN22 IN CANCER THERAPY” (The Johns Hopkins University, priority 2019, published 2022).

System: MC38 tumors
Test: MC38 subcutaneous syngeneic tumor model in WT C57Bl/6J mice
Settings: LTV1 6 mg/kg/dose, treatment analogous to L1
Experimental: All mice husbandry, experiments, and euthanasia were performed in accordance with Johns Hopkins IACUC approved protocols. WT C57Bl/6J, Balb/cJ, and PTPN22 KO (B6.Cg-Ptpn22tm2Achn/J) mice were purchased from JAX and bred in-house. For syngeneic immunocompetent mouse models, aged-matched 8-12 week old female mice were injected with MC38 (2.5×10^5) or EG7 (2.5×10^5 for rejection and 5×10^5 for treatment) or CT26 (5×10^5) subcutaneously in the right hind limb. […] LTV1 was also dissolved in DMSO and diluted to the same final formulation for administration at 6 mg/kg/dose. Vehicle injections contained 10% DMSO and 5% cremophor-EL in PBS.

Structure (SMILES): Cc1ccccc1N1C(=O)/C(=C/c2ccc(OCc3cccc(C(=O)O)c3)cc2)C(=O)NC1=S [LTV1]
- MC38 tumor growth compared to vehicle: moderately decreased tumor growth
